# Test results: patent publication US9701670B2, “Pyrazolyl-ureas as kinase inhibitors” (RESPIVERT LIMITED, priority 2013, dated 2017)
# How the values were obtained:
# [1] = system: β-catenin in d-U937 cells; experiment: (m) Accumulation of β catenin in d-U937 cells; format: cell-based, human
# Description: U937 cells, a human monocytic cell line, are differentiated into macrophage-type cells by incubation with PMA; (100 ng/mL) for between 48 to 72 hr. The cells are then incubated with either final concentrations of test compound or vehicle for 18 hr. The induction of β-catenin by the test compounds is stopped by replacing the media with 4% formaldehyde solution. Endogenous peroxide activity is neutralised by incubating with quenching buffer (100 μL, 0.1% sodium azide, 1% H2O2 in PBS with 0.05% Tween-20) for 20 min. The cells are washed with washing buffer (200 μL; PBS containing 0.05% Tween-20) and incubated with blocking solution (200 μL; 5% milk in PBS) for 1 hr, re-washed with washing buffer (200 μL) and then incubated overnight with anti-β-catenin antibody solution (50 μL) in 1% BSA/PBS (BD, Oxford, UK).
# After washing with washing buffer (3×200 μL; PBS containing 0.05% Tween-20), cells are incubated with an HRP-conjugated secondary antibody solution (100 μL) in 1% BSA/PBS (Dako, Cambridge, UK) and the resultant signal is determined colourimetrically (OD: 450 nm with a reference wavelength of 655 nm) using TMB substrate (50 μL; R&D Systems, Abingdon, UK). This reaction is stopped by addition of 1N H2SO4 solution (50 μL). Cells are then washed with washing buffer and 2% crystal violet solution (50 μL) is applied for 30 min. After washing with washing buffer (3×200 μL), 1% SDS (100 μL) is added to each well and the plates are shaken lightly for 1 hr prior to measuring the absorbance at 595 nm (Varioskan® Flash, Thermo-Fisher Scientific).
# The measured OD450-655 readings are corrected for cell number by dividing the OD450-655 by the OD595 readings. […] A signal less than 0.15 (15%) of that observed for the standard control is designated as “-ve”.
# [2] = system: Differentiated U937 cells; experiment: (l) Cell viability: MTT assay; format: cell-based, human; details: 1 μg/mL
# In short: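 MTT read-out (1 h, absorbance 550 nm) on d-U937 cells after pre-incubation with 1 or 10 μg/mL compound under two regimes: 4 h, 5% FCS, or 24 h, 10% FCS RPMI1640. Values are percent loss of viability relative to vehicle (0.5% DMSO), so increases are reported as negative.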
# [3] = biological target: p38 MAPKα isoform (MAPK14) (Homo sapiens (Human), UniProt Q16539); experiment: p38 MAPKα enzyme inhibition (FRET, Z-LYTE), Method 1; format: biochemical; details: Method 1 (Table 4a1)
# Sequence of p38 MAPKα isoform (MAPK14) (Q16539 whole entry, canonical isoform): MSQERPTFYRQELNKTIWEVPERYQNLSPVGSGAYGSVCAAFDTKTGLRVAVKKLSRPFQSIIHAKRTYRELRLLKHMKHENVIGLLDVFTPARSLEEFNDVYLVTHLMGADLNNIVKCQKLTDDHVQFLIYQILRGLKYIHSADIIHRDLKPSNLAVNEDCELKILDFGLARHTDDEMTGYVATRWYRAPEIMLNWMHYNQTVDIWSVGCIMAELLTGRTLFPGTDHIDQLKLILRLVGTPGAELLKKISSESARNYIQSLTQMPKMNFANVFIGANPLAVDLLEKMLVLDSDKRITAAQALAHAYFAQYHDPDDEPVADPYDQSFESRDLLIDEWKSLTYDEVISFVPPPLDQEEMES
SMILES,% β-catenin induction ([1]; 1 μg/mL test compound) [%],% β-catenin induction ([1]; 5 μg/mL test compound) [%],Cell viability at time point in d-U937 cells 4 h [2],Cell viability at time point in d-U937 cells 24 h [2],IC50 [3] [nM],"β-catenin inductive effect relative to the effect produced by the Reference Compound at 1 μg/mL ([1]; test concentration of 10 μg/mL, found to be negative)"
"C#Cc1cc(Nc2nccc(Oc3ccc(NC(=O)Nc4cc(C(C)(C)C#N)nn4-c4ccc(C)cc4)c4ccccc34)n2)cc(C(=O)NCCN2CCOCC2)c1 [Example 78, 3-((4-((4-(3-(3-(2-Cyanopropan-2-yl)-1-(p-tolyl)-1H-pyrazol-5-yl)ureido)-naphthalen-1-yl)oxy)pyrimidin-2-yl)amino)-5-ethynyl-N-(2-morpholinoethyl)benzamide]",9,0,–,–,–,–
"C#Cc1cc(Nc2nccc(Oc3ccc(NC(=O)Nc4cc(C(C)(C)C)nn4-c4ccc(C)cc4)c4ccccc34)n2)cc(C(=O)NC(C)(C)CN2CCOCC2)c1 [Example 82, 3-((4-((4-(3-(3-(tert-Butyl)-1-(p-tolyl)-1H-pyrazol-5-yl)ureido)naphthalen-1-yl)oxy)pyrimidin-2-yl)amino)-5-ethynyl-N-(2-methyl-1-morpholinopropan-2-yl)-benzamide]",0,9,–,–,–,–
"COc1ccc(-n2nc(C(C)(C)C)cc2NC(=O)Nc2ccc(Oc3ccnc(Nc4cc(OC)cc(C(N)=O)c4)n3)c3ccccc23)cc1 [Example 41, 3-((4-((4-(3-(3-(tert-butyl)-1-(4-methoxyphenyl)-1H-pyrazol-5-yl)ureido)naphthalen-1-yl)oxy)pyrimidin-2-yl)amino)-5-methoxybenzamide]",–,–,"−ve (−ve and +ve indicate that the value is below and above respectively, the no significant effect threshold, defined as 30% inhibition at 1 μg/mL at the time point indicated.)","−ve (−ve and +ve indicate that the value is below and above respectively, the no significant effect threshold, defined as 30% inhibition at 1 μg/mL at the time point indicated.)",50,–
"COc1ccc(-n2nc(C(C)(C)C)cc2NC(=O)Nc2ccc(Oc3ccnc(Nc4cccc(C(=O)NCCN5CCOCC5)c4)n3)c3ccccc23)cc1 [Example 21, 3-((4-((4-(3-(3-(tert-butyl)-1-(4-methoxyphenyl)-1H-pyrazol-5-yl)ureido)naphthalen-1-yl)oxy)pyrimidin-2-yl)amino)-N-(2-morpholinoethyl)benzamide]",–,–,"−ve (−ve and +ve indicate that the value is below and above respectively, the no significant effect threshold, defined as 30% inhibition at 1 μg/mL at the time point indicated.)","−ve (−ve and +ve indicate that the value is below and above respectively, the no significant effect threshold, defined as 30% inhibition at 1 μg/mL at the time point indicated.)",10,–
"C=C(C)c1cc(NC(=O)Nc2ccc(Oc3ccnc(Nc4cc(OC)cc(C(=O)NCCN5CCOCC5)c4)n3)c3ccccc23)n(-c2ccc(OC)cc2)n1 [Example 86, 3-Methoxy-5-((4-((4-(3-(1-(4-methoxyphenyl)-3-(prop-1-en-2-yl)-1H-pyrazol-5-yl)ureido)naphthalen-1-yl)oxy)pyrimidin-2-yl)amino)-N-(2-morpholinoethyl)-benzamide]",–,–,"−ve (−ve and +ve indicate that the value is below and above respectively, the no significant effect threshold, defined as 30% inhibition at 1 μg/mL at the time point indicated.)","−ve (−ve and +ve indicate that the value is below and above respectively, the no significant effect threshold, defined as 30% inhibition at 1 μg/mL at the time point indicated.)",10,less than 15%
"COc1cc(Nc2nccc(Oc3ccc(NC(=O)Nc4cc(C(C)C)nn4-c4ccc(OC)nc4)c4ccccc34)n2)cc(C(=O)NCCN2CCOCC2)c1 [Example 10, 3-((4-((4-(3-(3-Isopropyl-1-(6-methoxypyridin-3-yl)-1H-pyrazol-5-yl)ureido)naphthalen-1-yl)oxy)pyrimidin-2-yl)amino)-5-methoxy-N-(2-morpholinoethyl)benzamide]",–,–,"−ve (−ve and +ve indicate that the value is below and above respectively, the no significant effect threshold, defined as 30% inhibition at 1 μg/mL at the time point indicated.)","−ve (−ve and +ve indicate that the value is below and above respectively, the no significant effect threshold, defined as 30% inhibition at 1 μg/mL at the time point indicated.)",6,–
"COc1ccc(-n2nc(C(C)C)cc2NC(=O)Nc2ccc(Oc3ccnc(Nc4cccc(C(=O)NCCN5CCOCC5)c4)n3)c3ccccc23)cc1 [Example 20, 3-((4-((4-(3-(3-isopropyl-1-(4-methoxyphenyl)-1H-pyrazol-5-yl)ureido)naphthalen-1-yl)oxy)pyrimidin-2-yl)amino)-N-(2-morpholinoethyl)benzamide]",–,–,"−ve (−ve and +ve indicate that the value is below and above respectively, the no significant effect threshold, defined as 30% inhibition at 1 μg/mL at the time point indicated.)","−ve (−ve and +ve indicate that the value is below and above respectively, the no significant effect threshold, defined as 30% inhibition at 1 μg/mL at the time point indicated.)",5,–
"COc1cc(Nc2nccc(Oc3ccc(NC(=O)Nc4cc(C(C)C)nn4-c4ccc(C)cc4)c4ccccc34)n2)cc(C(=O)N(C)CCN2CCOCC2)c1 [Example 68, 3-((4-((4-(3-(3-isopropyl-1-(p-tolyl)-1H-pyrazol-5-yl)ureido)naphthalen-1-yl)oxy)pyrimidin-2-yl)amino)-5-methoxy-N-methyl-N-(2-morpholinoethyl)benzamide]",–,–,"−ve (−ve and +ve indicate that the value is below and above respectively, the no significant effect threshold, defined as 30% inhibition at 1 μg/mL at the time point indicated.)","−ve (−ve and +ve indicate that the value is below and above respectively, the no significant effect threshold, defined as 30% inhibition at 1 μg/mL at the time point indicated.)",< 1,–
"COc1cc(Nc2nccc(Oc3ccc(NC(=O)Nc4cc(C(C)C)nn4-c4ccc(C)cc4)c4ccccc34)n2)cc(C(=O)N2CCOCC2)c1 [Example 12, 1-(3-Isopropyl-1-(p-tolyl)-1H-pyrazol-5-yl)-3-(4-((2-((3-methoxy-5-(morpholine-4-carbonyl)phenyl)amino)pyrimidin-4-yl)oxy)naphthalen-1-yl)urea]",–,–,"−ve (−ve and +ve indicate that the value is below and above respectively, the no significant effect threshold, defined as 30% inhibition at 1 μg/mL at the time point indicated.)","−ve (−ve and +ve indicate that the value is below and above respectively, the no significant effect threshold, defined as 30% inhibition at 1 μg/mL at the time point indicated.)",6,–
